The target of assay [1] is T1, recombinant human ALK5 (TGF-βR1) protein (Homo sapiens, UniProt P36897).
T1 construct: purchased Life Technologies PR9075A
T1 sequence (P36897 34-503): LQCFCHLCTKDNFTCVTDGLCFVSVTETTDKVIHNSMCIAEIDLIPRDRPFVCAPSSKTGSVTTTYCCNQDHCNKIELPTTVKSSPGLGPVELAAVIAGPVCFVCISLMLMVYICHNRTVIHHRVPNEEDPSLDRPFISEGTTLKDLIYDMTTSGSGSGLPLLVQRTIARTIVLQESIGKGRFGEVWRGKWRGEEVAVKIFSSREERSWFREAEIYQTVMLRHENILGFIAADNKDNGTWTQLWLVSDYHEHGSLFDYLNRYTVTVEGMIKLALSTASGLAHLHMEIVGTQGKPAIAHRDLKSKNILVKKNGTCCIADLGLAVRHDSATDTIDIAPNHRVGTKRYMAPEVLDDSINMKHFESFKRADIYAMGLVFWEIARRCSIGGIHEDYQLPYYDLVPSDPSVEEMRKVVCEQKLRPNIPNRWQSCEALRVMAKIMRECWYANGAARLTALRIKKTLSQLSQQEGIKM
Kind of assay: Biochemical ALK5 (TGF-βR1) assay to measure pKi (LANCE Ultra ULight kinase assay). The following applies: apparent pKi from pIC50 by Cheng-Prusoff, read-out: ALK5 pKi (converted). The method in brief:
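Compounds (10 μM to 25 pM) were preincubated 60 min at room temperature with enzyme, then reactions were started with ATP (125 μM stock, 5× final) and run 60 min at 37 °C. EDTA-containing Eu-anti-phospho-Topo IIα (Thr1342) antibody stopped the reaction; TR-FRET read at 665 nm. pIC50 from 4-parameter fit, converted to pKi via Cheng-Prusoff.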
Background: Time-resolved FRET reads energy transfer from a long-lived donor to a nearby acceptor.

The subject of assay [2] is TGF-β-stimulated SMAD3 phosphorylation in BEAS-2B cells. The assay can be described thus: Cellular ALK5 potency assay, inhibition of TGF-β stimulated pSMAD3 formation in BEAS-2B cells. It is filed as cell-based. The note with it: Homo sapiens; inhibition of TGF-β stimulated pSMAD3 formation, BEAS-2B cells; read-out: BEAS2B pIC50 (converted). The method in brief: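 Potency is reported as pIC50, derived from concentration-dependent reduction of pSMAD3 AlphaLISA signal against TGF-β-stimulated cells without compound. BEAS-2B cells received compound for 1 h before a 30-min stimulation with 10 ng/mL TGF-β.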

Regarding `Cc1cccc(-c2[nH]cnc2-c2ccc3ncc(-c4ncc(C(=O)O)cn4)cc3c2)n1` [Compound 1140, 2-[6-[5-(6-methyl-2-pyridyl)-1H-imidazol-4-yl]-3-quinolyl]pyrimidine-5-carboxylic acid], in assay [1], the Ki is 0.0398 to 0.316 nM. The IC50 in assay [2] was 200 to 1260 nM.
In the case of `Cc1cccc(-c2[nH]cnc2-c2ccc3ncc(-c4ccc(C(=O)O)nc4)cc3c2)n1` [Compound 541, 5-(6-(5-(6-methylpyridin-2-yl)-1H-imidazol-4-yl)quinolin-3-yl)picolinic Acid], the Ki in assay [1] was less than 0.0316 nM. Also, the IC50 in assay [2] is 1580 to 10000 nM.
`Cc1cccc(-c2[nH]cnc2-c2ccc3ncc(C4=CCNCC4)cc3c2)n1` [Compound 472, 6-[5-(6-methyl-2-pyridyl)-1H-imidazol-4-yl]-3-(1,2,3,6-tetrahydropyridin-4-yl)quinoline]: in assay [1], the Ki was less than 0.0316 nM. The IC50 in assay [2] is less than 20 nM.
For `Cc1cccc(-c2n[nH]cc2-c2ccc3nccc(NC(=O)CN4CCOCC4)c3n2)n1` [Compound 840, N-[6-[3-(6-methyl-2-pyridyl)-1H-pyrazol-4-yl]-1,5-naphthyridin-4-yl]-2-morpholino-acetamide], in assay [1], the Ki was 0.0398 to 0.316 nM. Besides, in assay [2], the IC50 was 25.1 to 158 nM.
As for `Cc1cccc(-c2n[nH]cc2-c2ccc3nccc(N(C)CCN4CCOCC4)c3n2)n1` [Compound 831, N-methyl-6-[3-(6-methyl-2-pyridyl)-1H-pyrazol-4-yl]-N-(2-morpholinoethyl)-1,5-naphthyridin-4-amine], the Ki in assay [1] was 0.0398 to 0.316 nM. The IC50 in assay [2] was 200 to 1260 nM.
Take `Cc1cccc(-c2n[nH]cc2-c2ccc3ncc(N(C)C4CCN(C)C4)cc3n2)n1` (racemic) [Compound 140, N-methyl-6-[3-(6-methyl-2-pyridyl)-1H-pyrazol-4-yl]-N-[rac-(3R)-1-methylpyrrolidin-3-yl]-1,5-naphthyridin-3-amine]: the Ki in assay [1] is less than 0.0316 nM. Further, the IC50 in assay [2] was 25.1 to 158 nM.
Consider `Cc1cccc(-c2n[nH]cc2-c2ccc3nccc(N4CCC(N(C)C)C4)c3c2)n1` (racemic) [Compound 867, rac-(3S)-N,N-dimethyl-1-[6-[3-(6-methyl-2-pyridyl)-1H-pyrazol-4-yl]-4-quinolyl]pyrrolidin-3-amine], for which the Ki in assay [1] is 0.398 to 3.16 nM. Moreover, the IC50 in assay [2] was 200 to 1260 nM.
Taken in the same sequence, the figures for `COC(=O)Cn1cc(-c2cnc3ccc(-c4c[nH]nc4-c4cccc(C)n4)nc3c2)cn1` [Compound 673, methyl 2-[4-[6-[3-(6-methyl-2-pyridyl)-1H-pyrazol-4-yl]-1,5-naphthyridin-3-yl]pyrazol-1-yl]acetate] were 0.0398 to 0.316 nM and 25.1 to 158 nM.
For the compound `Cc1cccc(-c2[nH]ncc2-c2ccc3nccc(C(=O)O[C@H]4CC[C@H](N)CC4)c3c2)n1` [Compound 1217, (4-aminocyclohexyl) 6-[5-(6-methyl-2-pyridyl)-1H-pyrazol-4-yl]quinoline-4-carboxylate], in assay [1], the Ki is 0.398 to 3.16 nM. For the same compound, in assay [2], the IC50 was 25.1 to 158 nM.
As to `Cc1cccc(-c2[nH]nnc2-c2ccc3ncc(-c4c[nH]nc4C(F)(F)F)cc3n2)n1` [Compound 521, 2-[5-(6-methyl-2-pyridyl)-1H-triazol-4-yl]-7-[3-(trifluoromethyl)-1H-pyrazol-4-yl]-1,5-naphthyridine], in assay [1], the Ki was 0.398 to 3.16 nM. Moreover, the IC50 in assay [2] is 25.1 to 158 nM.
Consider `Cc1cccc(-c2[nH]cnc2-c2ccc3ncc(-c4cncc(CN5CCNCC5)c4)cc3c2)n1` [Compound 1117, 6-[5-(6-methyl-2-pyridyl)-1H-imidazol-4-yl]-3-[5-(piperazin-1-ylmethyl)-3-pyridyl]quinoline], for which the Ki in assay [1] was 0.0398 to 0.316 nM. The IC50 in assay [2] is 25.1 to 158 nM.
For the compound `Cc1cccc(-c2[nH]cnc2-c2ccc3ncc(-c4ncc(C(=O)O[C@@H]5CCNC5)s4)cc3c2)n1` [Compound 1166, [(3R)-pyrrolidin-3-yl] 2-[6-[5-(6-methyl-2-pyridyl)-1H-imidazol-4-yl]-3-quinolyl]thiazole-5-carboxylate], the Ki in assay [1] was 0.0398 to 0.316 nM. For the same compound, the IC50 in assay [2] was 25.1 to 158 nM.
On the same counts, the results for `Cc1cccc(-c2n[nH]cc2-c2ccc3nccc(N4CC(N5CCOCC5)C4)c3n2)n1` [Compound 846, 4-[1-[6-[3-(6-methyl-2-pyridyl)-1H-pyrazol-4-yl]-1,5-naphthyridin-4-yl]azetidin-3-yl]morpholine] are 0.398 to 3.16 nM and 200 to 1260 nM.
On the same counts, the results for `Cc1cccc(-c2n[nH]c(N)c2-c2ccc3ncc(N4CCNCC4)cc3n2)n1` [Compound 238, 3-(6-methyl-2-pyridyl)-4-(7-piperazin-1-yl-1,5-naphthyridin-2-yl)-1H-pyrazol-5-amine] are 0.398 to 3.16 nM and 1580 to 10000 nM.
For `Cc1cccc(-c2nnn(Cc3ccccc3)c2-c2ccc3ncc(-c4cn[nH]c4)cc3c2)n1` [Compound 254, 6-[3-benzyl-5-(6-methyl-2-pyridyl)triazol-4-yl]-3-(1H-pyrazol-4-yl)quinoline], the Ki in assay [1] was 0.0398 to 0.316 nM. Besides, the IC50 in assay [2] was 25.1 to 158 nM.
As for `Cc1cccc(-c2n[nH]cc2-c2ccc3ncc(N4CCC(O)C4)cc3n2)n1` (racemic) [Compound 312, rac-(3R)-1-[6-[3-(6-methyl-2-pyridyl)-1H-pyrazol-4-yl]-1,5-naphthyridin-3-yl]pyrrolidin-3-ol], in assay [1], the Ki was less than 0.0316 nM. In assay [2], the IC50 is less than 20 nM.
On the same counts, the results for `Cc1cccc(-c2n[nH]cc2-c2ccc3ncc(-c4nnn5c4NCCC5)cc3n2)n1` [Compound 550, 2-[3-(6-methyl-2-pyridyl)-1H-pyrazol-4-yl]-7-(4,5,6,7-tetrahydrotriazolo[1,5-a]pyrimidin-3-yl)-1,5-naphthyridine] are 0.0398 to 0.316 nM and 25.1 to 158 nM.
On to `Cc1cccc(-c2[nH]ncc2-c2ccc3ncc(C(=O)OCCN4CCC[C@H](N)C4)cc3c2)n1` [Compound 1191, 2-[(3S)-3-amino-1-piperidyl]ethyl 6-[5-(6-methyl-2-pyridyl)-1H-pyrazol-4-yl]quinoline-3-carboxylate], for which the Ki in assay [1] is less than 0.0316 nM. Besides, the IC50 in assay [2] was 25.1 to 158 nM.
For `Cc1cccc(-c2n[nH]cc2-c2ccc3ncc(N4CCn5nc(C6=CCC(N)CC6)nc5C4)cc3n2)n1` (centres unmarked) [Compound 268, 4-[7-[6-[3-(6-methyl-2-pyridyl)-1H-pyrazol-4-yl]-1,5-naphthyridin-3-yl]-6,8-dihydro-5H-[1,2,4]triazolo[1,5-a]pyrazin-2-yl]cyclohex-3-en-1-amine], the Ki in assay [1] was 0.0398 to 0.316 nM. Moreover, in assay [2], the IC50 is 200 to 1260 nM.
On the same counts, the results for `Cc1cccc(-c2[nH]ncc2-c2ccc3ncc(C(=O)OCCN4CCCC4)cc3n2)n1` [Compound 361, 2-pyrrolidin-1-ylethyl 6-[5-(6-methyl-2-pyridyl)-1H-pyrazol-4-yl]-1,5-naphthyridine-3-carboxylate] are 0.398 to 3.16 nM and 25.1 to 158 nM.
Turning to `Cc1cccc(-c2n[nH]cc2-c2ccc3ncc(NCCN4CCOCC4)cc3n2)n1` [Compound 239, 6-[3-(6-methyl-2-pyridyl)-1H-pyrazol-4-yl]-N-(2-morpholinoethyl)-1,5-naphthyridin-3-amine], the Ki in assay [1] is 0.0398 to 0.316 nM. Also, the IC50 in assay [2] was 25.1 to 158 nM.
On to `Cc1cccc(-c2n[nH]cc2-c2ccc3ncc(NC(=O)CCN4CCOCC4)cc3n2)n1` [Compound 286, N-[6-[3-(6-methyl-2-pyridyl)-1H-pyrazol-4-yl]-1,5-naphthyridin-3-yl]-3-morpholino-propanamide], for which the Ki in assay [1] is 0.0398 to 0.316 nM. Also, the IC50 in assay [2] is 25.1 to 158 nM.
